Reference: patent EP4458352A1, “EICOSAPENTAENOIC ACID ESTER DERIVATIVES FOR THE TREATMENT OF OBESITY” (Technische Universität Dresden, priority 2023, dated 2024)

Tests used:
[1] = system: primary adrenocortical cells; experiment: Flow cytometry with Mitotracker Green and TMRE in primary adrenocortical cells treated with SC-26196; type: cell-based, WT C57BL/6J mice; conditions: SC-26196 10 µM, 18 h vs DMSO; n=6
Procedure: Adrenocortical cells (CD31-CD45-) were treated for 18 h with DMSO or SC-26196 (10 µM) and were then incubated with Mitotracker Green (0.25 µM; Invitrogen), TMRE (2.5 µM; Thermofisher), for 30 min at 37°C in FACS buffer (0.5 % BSA, 2 mM EDTA in PBS) in dark. Live cells were selected by DAPI staining. FACS was performed using LSR Fortessa X20 flow cytometer and data were analyzed with the FlowJo software.

[2] = system: primary adrenal cell cultures; experiment: Steroid hormone production (LC-MS/MS) in primary adrenal cell cultures treated with SC-26196, with or without ACTH or ARA; type: cell-based, WT C57BL/6J mice
Procedure: Adrenal glands or adrenal corteces were isolated from WT C57BL/6J mice, cleaned from the surrounding fat tissue and incubated in collagenase buffer (1.6 mg/ml collagenase type I, 1.6 mg/ml BSA) for 45 min at 37 °C, while shaking at 900 rpm. Dissociated cells were passed through 22 G needle and a 100 µm cell strainer and centrifuged at 300 × g for 5 min at 4 °C. Cells of a pool from two adrenals of each mouse were distributed in four 0.2 % gelatin-precoated wells of a 96-well plate in DMEM/F12 supplemented with 1 % FBS, 50 U/mL penicillin and 50 µg/mL streptomycin. Two hours after seeding 10 µM SC-26196 (Tocris, Wiesbaden-Nordenstadt, Germany) or same amount of carrier (DMSO) were added without changing the medium. In some experiments medium was additionally supplemented with 150 µM ARA (Sigma Aldrich, Germany) or same amount of solvent (endotoxin-free water). When induction of steroidogenesis was required, the medium was changed 18 h after treatment and the cells were incubated with or without 10 ng/mL ACTH for 60 min in the presence of either 10 µM SC-26196 or DMSO. Supernatants were kept for steroid hormone measurement and cell lysates were collected for transcriptional analysis. In some experiments, primary CD31-CD45- adrenocortical cells were treated or not for 18 h with 66 µM EPA (Sigma-Aldrich). Steroid hormones in plasma and cell culture supernatants were analyzed by LC-MS/MS as previously described (71). Fifty to hundred µL plasma or cell culture supernatants were extracted by solid phase extraction using positive pressure, followed by a dry-down under gentle stream of nitrogen. Residues were reconstituted in 100 µL of the initial LC mobile phase and 10 µL were injected for detection by the triple quadrupole mass spectrometer in multiple reaction-monitoring scan mode using positive electrospray ionization. Quantification of steroid concentrations was done by comparisons of ratios of analyte peak areas to respective peak areas of stable isotope labeled internal standards obtained in samples to those of calibrators.

HFD mice = experiment: Hair corticosteroid levels (LC-MS/MS) in HFD mice given dietary SC-26196; type: in vivo, WT C57BL/6J mice
Procedure: Six weeks-old male WT C57BL/6J mice were fed for 20 weeks a LFD (D12450B, Research Diets, NJ, USA) or a HFD (D12492, Research Diets, NJ, USA). In some experiments, WT C57BL/6J mice were fed for 8 weeks a HFD and for another 8 weeks a HFD supplemented with SC-26196 (Biorbyt Ltd). SC-26196 was mixed in the HFD at a concentration of 625 mg/kg of diet corresponding to approx. 100 mg/kg of animal weight. In other experiments WT mice were fed for 10 weeks a HFD and for another 10 weeks a HFD supplemented with icosapent ethyl (Vascepa). The content of Vascepa capsules was mixed by Research Diets with the diet at a concentration of 1.125 g/kg icosapent ethyl (corresponding to approx. 180 mg/kg of animal weight). Mice were weighed every week. Glucose and insulin tolerance tests were performed as previously described (20, 21). Three to five mg of hair (2-3 mm close to the skin on the back of the mice) were cut while gently holding the mice without anaesthesia.
Corticosterone and 11-dehydrocorticosterone in hair were extracted with methanol as described elsewhere. In brief, hair (3-5 mg) was washed by addition of 2.5 mL isopropanol. After 3 minutes the isopropanol was decanted and hair samples were dried in a fume hood. After drying, hair samples were extracted in 1.8 mL methanol that contained the internal standard mixtures for 18 h at room temperature. Finally, the methanolic extract was dried down, followed by reconstitution in respective mobile phase and analysis by LC-MS/MS as previously described with minor modifications. […] Corticosterone and 11-dehydrocorticosterone were detected by using the multi reaction monitoring scan mode with respective quantifier ions of 347.1->329.2 and 345.1->121.1, and qualifier ions of 347.1->90.9 and 345.1->242.3. […] Quantification of steroid hormones was achieved by comparisons of ratios of analyte peak areas to internal standard peak areas observed in samples to those in calibrators. Measured steroid concentrations were normalized to sample weights.

[3] = SC-26196 10 µM 18 h, then ACTH 10 ng/mL for 1 h, n=12
[4] = 6 weeks after SC-26196 treatment start, HFD containing 0.625 g/kg SC-26196 vs control, n=8-10

Q: Which “mitochondrial load (Mitogreen staining)” value [1] does the source give for N#CC(CCCN1CCN(/N=C/c2cccnc2)CC1)(c1ccccc1)c1ccccc1 [SC-26196] here?
A: Its value is “decreased”.

Q: And the “mitochondrial membrane potential (TMRE staining)” value [1]?
A: Its value is “decreased”.

Q: And the 11-deoxycorticosterone production [2, 3]?
A: The 11-deoxycorticosterone production was “abolished”.

Q: And the aldosterone production [2, 3]?
A: Its aldosterone production is “abolished”.

Q: What about the corticosterone production [2, 3] of the same molecule?
A: The corticosterone production was “abolished”.

Q: What about the progesterone production [2, 3] of the same molecule?
A: Its progesterone production is “abolished”.

Q: And the cell viability ([2]; SC-26196-treated primary adrenal cell cultures, data not shown)?
A: The cell viability was “without affecting cell viability”.

Q: And the “levels of 11-dehydrocorticosterone in newly-grown hair” value (HFD mice; 3 weeks after SC-26196 treatment start, HFD containing 0.625 g/kg SC-26196 (approx. 100 mg/kg of animal weight) vs control)?
A: The value was “reduced”.

Q: What about the “11-dehydrocorticosterone levels in the hair” value (HFD mice; [4]) of the same molecule?
A: The value was “reduced”.

Q: And the “corticosterone levels in the hair” value (HFD mice; [4])?
A: The value was “reduced”.
